Holding throughout (format): ADME, organism-based
Series [1] concerns Blood. The experiment in a line: Drug uptake in Sprague-Dawley rat blood at 0.29 to 1.3 nmol/body, iv after 60 mins by gamma counting based PET imaging method. Conditions: in vivo, 1 h; call rule not given here.
For series [2], the system named is Blood. The experiment in a line: Drug uptake in Sprague-Dawley rat blood at 0.29 to 1.3 nmol/body, iv after 40 mins by gamma counting based PET imaging method. To be noted: in vivo.
Series [3] deals with Liver. As to the kind of experiment: Drug uptake in Sprague-Dawley rat liver at 0.29 to 1.3 nmol/body, iv after 10 mins by gamma counting based PET imaging method. Conditions: in vivo.
The test system of series [4] is Liver. As to the kind of experiment: Drug uptake in Sprague-Dawley rat liver at 0.20 to 1.4 nmol/body, iv after 2 mins by gamma counting based PET imaging method. To be noted: in vivo.
Another series concerns Kidney. As to the kind of experiment: Drug uptake in Sprague-Dawley rat kidney at 0.20 to 1.4 nmol/body, iv after 2 mins by gamma counting based PET imaging method. Conditions: in vivo.
In another series the test system is Intestine. As to the kind of experiment: Drug uptake in Sprague-Dawley rat intestine at 0.20 to 1.4 nmol/body, iv after 60 mins by gamma counting based PET imaging method. To be noted: in vivo, 1 h.
Series [5] can be described thus: Drug uptake in Sprague-Dawley rat urinary bladder at 0.20 to 1.4 nmol/body, iv after 60 mins by gamma counting based PET imaging method. To be noted: in vivo, 1 h.
Series [6] deals with Blood. As to the kind of experiment: Drug uptake in Sprague-Dawley rat blood at 0.20 to 1.4 nmol/body, iv within 40 mins by gamma counting based PET imaging method. Conditions: in vivo.
In series [7] the test system is Liver. As to the kind of experiment: Drug uptake in Sprague-Dawley rat liver at 0.20 to 1.4 nmol/body, iv within 40 mins by gamma counting based PET imaging method. Conditions: in vivo.
Series [8] can be described thus: Drug uptake in Sprague-Dawley rat bile at 0.20 to 1.4 nmol/body, iv within 40 mins by gamma counting based PET imaging method. To be noted: in vivo.
The nature of series [9]: Drug uptake in Sprague-Dawley rat urine at 0.20 to 1.4 nmol/body, iv within 40 mins by gamma counting based PET imaging method. Conditions: in vivo.

Turning to `[11CH3]c1ccc(-c2cc(C(F)(F)F)nn2-c2ccc(S(N)(=O)=O)cc2)cc1`, the Drug uptake in the series on Blood [1] was greater than 1 %ID/ml; in the series with Blood [2], “Active”; in the series with Liver [3], “Active”.
As for `NS(=O)(=O)c1ccc(-n2nc(C(F)(F)F)cc2-c2ccc([11C](=O)O)cc2)cc1`, the Drug uptake in the series with Liver [4] is 35 %ID; in the series with Kidney it was 14 %ID; with Intestine, 58 %ID; in series [5], 22 %ID; in the series with Blood [6], “Active”; with Liver [7], “Active”. The Drug uptake result in series [8] and in series [9] was “Active” in each case.
